{"source": "paper PMC6894070", "about": "“The Plasmodium falciparum Hsp70-x chaperone assists the heat stress response of the malaria parasite” (The FASEB Journal, 2019)", "key": {"PfHsp70-x [1]": {"target": "T1, PfHsp70-x (Plasmodium falciparum, UniProt A0A143ZXN1)", "T1 construct": "gene PF3D7_0831700; aa 25-679, export signal peptide excluded; codon-optimized synthetic DNA; N-terminal His6 tag cut by 3C protease; expressed in E. coli Rosetta2(DE3)", "experiment": "MESG-coupled ATPase assay", "format": "biochemical", "details": "5 uM chaperone alone, 1 mM ATP, pH 8, 25 C"}, "Hsc70": {"target": "T2, Hsc70 (Homo sapiens, UniProt P11142)", "T2 construct": "gene HSPA8", "T2 sequence (P11142 whole entry)": "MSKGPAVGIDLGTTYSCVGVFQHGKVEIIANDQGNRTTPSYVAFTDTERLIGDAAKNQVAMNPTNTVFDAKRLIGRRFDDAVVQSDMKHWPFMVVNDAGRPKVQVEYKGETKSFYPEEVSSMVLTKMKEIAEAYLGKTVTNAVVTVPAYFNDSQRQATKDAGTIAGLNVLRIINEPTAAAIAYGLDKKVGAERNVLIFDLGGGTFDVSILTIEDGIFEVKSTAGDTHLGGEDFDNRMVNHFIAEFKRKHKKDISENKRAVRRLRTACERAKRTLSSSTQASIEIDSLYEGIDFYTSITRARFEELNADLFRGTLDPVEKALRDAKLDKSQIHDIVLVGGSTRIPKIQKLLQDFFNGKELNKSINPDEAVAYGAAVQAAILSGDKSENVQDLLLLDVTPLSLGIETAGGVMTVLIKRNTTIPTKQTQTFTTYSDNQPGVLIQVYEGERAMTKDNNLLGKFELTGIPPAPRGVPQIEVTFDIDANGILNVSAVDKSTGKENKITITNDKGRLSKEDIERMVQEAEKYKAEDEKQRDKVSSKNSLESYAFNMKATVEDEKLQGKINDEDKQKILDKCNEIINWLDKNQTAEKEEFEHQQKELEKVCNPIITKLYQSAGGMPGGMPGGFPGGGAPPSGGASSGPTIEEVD", "details": "5 uM chaperone, 1 mM ATP, Mg2+, pH 8, 25 C"}, "PfHsp70-x [2]": {"target": "T1, PfHsp70-x", "experiment": "MESG-coupled ATPase assay", "format": "biochemical", "details": "5 uM chaperone alone, 1 mM ATP, pH 8, 25 C", "remark": "listed apart in the source"}}}
{"smiles": "CN(C)c1ccc2nc3ccc(=[N+](C)C)cc-3sc2c1", "note": "[methylene blue]", "values": [{"measurement": "half-maximal inhibitory concentration", "setting": "PfHsp70-x [1]", "value": "methylene blue inhibits both basal and stimulated PfHsp70-x activity"}]}
{"smiles": "Nc1ncnc2c1ncn2[C@@H]1O[C@H](COP(=O)(O)OP(=O)(O)OP(=O)(O)O)[C@@H](O)[C@H]1O", "note": "[ATP]", "values": [{"measurement": "MESG-coupled ATPase assay", "setting": "Hsc70", "value": "fold changes in ATP hydrolysis activities of PfHsp70-x (A, B) or human Hsc70 (C, D)"}]}
{"smiles": "CC1(C)OC2=C(CC1Br)C(=O)C(=O)c1ccccc12", "note": "(stereo not drawn) [BBL, bromo-β-lapachona]", "values": [{"measurement": "apparent half-maximal inhibitory concentration", "setting": "PfHsp70-x [2]", "value": "BBL inhibited PfHsp70-x in our ATPase assays with low micromolar apparent half-maximal inhibitory concentration"}]}
